Key:
[1] = tested on: patients with walking difficulties, proctoptosia, backaches, limb pains; assay: Tablets of Example 4 administered once a day to aged patients with muscle disorders; type: in vivo, human; details: single regular dose of drugs admixed with one of scymnol, isoflavone, and cholic acid
From the text: In Western medicine, it has been understood that proctoptosia and leg, lumbus and arm aches are attributable only to hematogenous disorders and resultant inflammation at local sites. […] Thus, it can be understood that these disorders are attributed to insufficient communication of brain commands to local sites and therefore the hematogenous disorders and onset of inflammation are problems caused by abnormal motions of muscles due to incomplete communication of brain commands.

[2] = tested on: adrenaline secretion; assay: Animal experiments using mice: secretomotory action on adrenaline (blood glucose levels); type: in vivo
From the text: No studies have been conducted on the efficacy of curcumin, zingerone, or shogaol on the stimulation of adrenaline secretion.

Compound | effect on proctoptosia and leg, lumbus and arm aches [1] | blood glucose levels (secretomotory action on adrenaline) [2]
C[C@H](CCC(=O)O)[C@H]1CC[C@H]2[C@@H]3[C@H](O)C[C@@H]4C[C@H](O)CC[C@]4(C)[C@H]3C[C@H](O)[C@]12C [cholic acid] | not significantly ameliorated | –
COc1cc(/C=C/C(=O)/C=C(O)/C=C/c2ccc(O)c(OC)c2)ccc1O [curcumin] | – | remarkably elevated
C[C@H](CC[C@@H](O)C(CO)CO)C1CCC2C3C(C[C@H](O)[C@@]21C)[C@@]1(C)CC[C@@H](O)CC1C[C@H]3O (some centres unmarked) [scymnol, Scymnol] | not significantly ameliorated | –
CCCCC/C=C/C(=O)CCc1ccc(O)c(OC)c1 [shogaol, (6)-shogaol] | – | remarkably elevated
COc1cc(CCC(C)=O)ccc1O [zingerone] | – | remarkably elevated
